Data set [1] concerns Microsporum gypseum. The experiment in a line: M38-P microdilution MIC/MFC. In kind it is cell-based. Conditions: Table 16, Dermatophytes.
Data set [2] concerns clinical isolate of Trichomonas vaginalis. Nature of the data set: microbe, parasite or virus in culture. The class given is cell-based.
In data set [3] the test system is S. aureus. Nature of the data set: Antibacterial activity in the presence of blood, macrodilution. The class given is cell-based.
The test system of data set [4] is Enterobacter aerogenes B-687. Nature of the data set: Sensitivity of strains: suppression of growth. In kind it is cell-based. The following applies: Compound (1) 1.0%; antibiotics disc method.
Data set [5] can be described thus: physchem. Conditions: aqueous with cosolvent or surfactant or cyclodextrin.
Data set [6] concerns Salmonella typhimurium M-727. Nature of the data set: Sensitivity of strains: suppression of growth. In kind it is cell-based. Conditions: Compound (1) 1.0%; antibiotics disc method.
Data set [7] concerns Candida albicans. Nature of the data set: M38-P microdilution MIC/MFC. The class given is cell-based. The following applies: Table 16, 24 h, 35° C.
Data set [8] concerns C. hyointestinalis 54/4. Nature of the data set: MIC/MMC against clinical strains of Campylobacter spp. Conditions: Table 18; clinical strain isolated from humans.

Converted amounts (≈) assume the structure as drawn.

Consider `C/C(=C\c1ccc2c(c1)OCO2)[N+](=O)[O-]` [Compound (1)], for which the MIC in data set [1] (Nannizzia gypsea) worked out at 1 µg/mL (≈ 4.83 µM); in data set [2] (Trichomonas vaginalis, 24 h), 4 µg/mL (≈ 19.3 µM); in data set [3] (5% blood), 16 µg/mL; in data set [3] (10% plasma), 16 µg/mL; in data set [3] (Staphylococcus aureus), 16 µg/mL; in data set [7] (Candida albicans, read-out: MIC), 8 µg/mL (≈ 38.6 µM). The MMC in data set [1] amounted to 8 µg/mL; in data set [2], 4 µg/mL; in data set [3] (5% blood), 256 µg/mL; in data set [3] (10% plasma), 256 µg/mL; in data set [7], 8 µg/mL; in data set [8] it was 2. Moreover, the “Suppression of Growth (+/−)” value in data set [4] and in data set [6] was “+” throughout. Also, the solubility in data set [5] was 1000 µg/mL (≈ 4830 µM).
